Measured values: patent US20220031840A1, “Method of Treatment” (HaemaLogix Pty Ltd, priority 2018, published 2022)

What was measured:
[1] = test system: human anti-chimeric antibody (HACA) against kappamab; test: Human anti-chimeric antibody (HACA) sandwich ELISA; type: in vivo; details: Day 45 post infusion, any patient
Method: Blood samples were taken at pre-infusion and at completion of the treatment phase (Day 45 post infusion) for measurement of HACA responses. The presence of HACA was measured using a validated sandwich ELISA. Briefly, kappamab was immobilized on ELISA plates and the captured antibodies were detected using biotinylated kappamab and ExtrAvidie-alkaline phosphatase (Sigma, USA) followed by the alkaline phosphatase (AP) substrate. Goat anti-human IgG was used as the positive control for the assay.

serum κFLC = test: Serum κFLC pharmacodynamics (FreeLite assay); type: in vivo, human
Text: (§1) Serum FLC levels were quantified using the FreeLite™ assay (The Binding Site Group Ltd, Birmingham, UK). […] Twenty-four-hour urine collection for urine protein electrophoresis immunofixation, urine FLC measurement (FreeLite™ assay), and creatinine clearance were collected on the day of infusion and on Day 45.

urine κFLC = test: 24-hour urine κFLC (FreeLite assay); type: in vivo, human
Text: as §1

[2] = test system: 48 human cytokines, chemokines, and growth factors; test: Biomarker analysis, Bio-Plex 27-plex and 21-plex, mixed-effects model; type: in vivo; details: 48 cytokines
Method: (§2) Patient serum samples for biomarker analysis were collected approximately 30 minutes before infusion of kappamab and then at 6, 48, 192, and 1,080 hours after infusion for all patients. Samples were analysed in triplicate and serum levels of 48 human cytokines, chemokines, and growth factors were measured using the Bio-Plex Pro™ Human Cytokine 27-plex and 21-plex assays according to the manufacturer's recommendations (Bio-Rad, Carlsbad, Calif., USA; Cat No M10-0KCAF0Y, mg0-005KMII). Results were verified by repeating the 21-plex assay in triplicate and the samples were randomized across the assay plate. Pre-infusion samples were used as the baseline (t=0) for the analysis.
(§3) Multivariate analysis of the biomarker data was performed using R version 3.1.0 (2014-04-10) software (http://www.R-project.org/). Linear mixed effects modelling was completed using 1me4 (Bates et al. 2015). […]
(§4) To find significance between kappamab dose, time, and cytokine expression levels, we fitted a linear mixed-effects model that modelled cytokine fluorescence expression levels with fixed-effects terms for baseline cytokine fluorescence expression, kappamab dose (with 4 levels: 0.3, 1.0, 3.0, and 10 mg/kg), time (treated as factor with 5 levels), and cytokine with 48 levels, plus their interactions, with a random effect associated with patient (12 levels) and plex (2 levels). […]

CXCL10 = test: Biomarker analysis: serum CXCL10; type: in vivo, human; details: adjusted for cytokine baseline differences
Method: as §2, §3, §4

HGF = test: Biomarker analysis: serum HGF; type: in vivo, human; details: adjusted for cytokine baseline differences
Method: as §2, §3, §4

multiple myeloma = test: Myeloma response, 18FDG-PET scan; type: in vivo, human
Method: FIG. 5. ^[…]-positron emission tomography (^18FDG-PET) scans for Patient 8 (who was receiving lenalidomide) prior to kappamab treatment (Panel A) and 30 days after intravenous infusion with 3.0 mg/kg kappamab (Panel B). ^18FDG-PET scanning was performed encompassing the skull vertex down to the knees on the combined PET/Computed Tomography (CT) scanner and a contemporaneous low-dose, non-contrast CT scan was performed for the purposes of attenuation correction and to provide anatomical correlation. […] In the spine, disease is most prominent within the sacrum. In the appendicular skeleton, disease is most pronounced within the proximal femur, where a prosthetic rod is in situ. No metabolically active disease is present outside the bones. In Panel B, ^18FDG-PET scanning was performed as before to assess the response 30 days after kappamab treatment. […] Low-grade uptake on the right lower lateral chest wall was […] and may reflect physiological muscular activity.
As patients only received a single infusion of kappamab it was not anticipated that any conventional responses would be observed.

kappamab: humanized form of K121 anti-KMA antibody; VH SEQ ID NO: 1, VL SEQ ID NO: 2
HACA response to kappamab [1]: no antibody responses to kappamab were detected
Serum κFLC higher than baseline (serum κFLC; Patient 2, during the study): up to 136%
Serum κFLC higher than baseline (serum κFLC; Patient 7, Day 1): 83%
Serum κFLC increase from baseline (serum κFLC; Patient 7, Day 30): 178%
Serum κFLC increase from baseline (serum κFLC; Patient 7, Day 45): 198%
Serum κFLC versus baseline (serum κFLC; Patient 7, by Day 105 post infusion): returned to below baseline
Serum κFLC increase from baseline (serum κFLC; Patient 13, 6 hours after IV infusion): 690%
Serum κFLC below baseline (serum κFLC; Patient 13, Day 45, remained for 3 months): 55%
Patients with decreases in serum κFLC below baseline (serum κFLC; after Day 15, 8/12 patients): 67%
Change in serum κFLC levels following IV infusion (serum κFLC; all patients): increase
Serum κFLC versus baseline (serum κFLC; by Day 45, majority of patients): generally similar to baseline values
Dose dependency between serum κFLC increase and kappamab concentration (serum κFLC; in vivo): no clear dose dependency
Patients with a decrease in urine κFLC (urine κFLC; Day 1, 8/12 patients): 67%
Patients with a decrease in urine κFLC (urine κFLC; Day 45 post infusion, 7/12 patients): 58%
Urine κFLC (urine κFLC; Patient 1, Day 1): 144 mg/24 hours
Urine κFLC percent change from baseline (urine κFLC; Patient 1, Day 1): −31%
Urine κFLC (urine κFLC; Patient 1, Day 45): 107 mg/24 hours
Urine κFLC percent change from baseline (urine κFLC; Patient 1, Day 45): −49%
Urine κFLC (urine κFLC; Patient 2, Day 1): 1902 mg/24 hours
Urine κFLC percent change from baseline (urine κFLC; Patient 2, Day 1): −27%
Urine κFLC percent change from baseline (urine κFLC; Patient 2, Day 45): −13%
Urine κFLC (urine κFLC; Patient 2, Day 45, exceeds upper limit of quantitation): > 2272 mg/24 hours
Urine κFLC (urine κFLC; Patient 3, Day 1): 1143 mg/24 hours
Urine κFLC percent change from baseline (urine κFLC; Patient 3, Day 1): −15%
Urine κFLC (urine κFLC; Patient 3, Day 45): 5964 mg/24 hours
Urine κFLC percent change from baseline (urine κFLC; Patient 3, Day 45): +343%
Urine κFLC (urine κFLC; Patient 4, Day 1): 24 mg/24 hours
Urine κFLC percent change from baseline (urine κFLC; Patient 4, Day 1): +85%
Urine κFLC (urine κFLC; Patient 4, Day 45): 18 mg/24 hours
Urine κFLC percent change from baseline (urine κFLC; Patient 4, Day 45): +38%
Urine κFLC (urine κFLC; Patient 5, Day 1): 31 mg/24 hours
Urine κFLC percent change from baseline (urine κFLC; Patient 5, Day 1): −68%
Urine κFLC (urine κFLC; Patient 5, Day 45): 103 mg/24 hours
Urine κFLC percent change from baseline (urine κFLC; Patient 5, Day 45): +6%
Urine κFLC (urine κFLC; Patient 6, Day 1): 38 mg/24 hours
Urine κFLC percent change from baseline (urine κFLC; Patient 6, Day 1): −17%
Urine κFLC (urine κFLC; Patient 6, Day 45): 45 mg/24 hours
Urine κFLC percent change from baseline (urine κFLC; Patient 6, Day 45): −2%
Urine κFLC (urine κFLC; Patient 7, Day 1): 390 mg/24 hours
Urine κFLC percent change from baseline (urine κFLC; Patient 7, Day 1): +25%
Urine κFLC (urine κFLC; Patient 7, Day 45): 286 mg/24 hours
Urine κFLC percent change from baseline (urine κFLC; Patient 7, Day 45): −8%
Urine κFLC (urine κFLC; Patient 8, Day 1): 34 mg/24 hours
Urine κFLC percent change from baseline (urine κFLC; Patient 8, Day 1): +278%
Urine κFLC (urine κFLC; Patient 8, Day 45): 25 mg/24 hours
Urine κFLC percent change from baseline (urine κFLC; Patient 8, Day 45): +178%
Urine κFLC (urine κFLC; Patient 9, Day 1): 49 mg/24 hours
Urine κFLC percent change from baseline (urine κFLC; Patient 9, Day 1): −13%
Urine κFLC (urine κFLC; Patient 9, Day 45): 39 mg/24 hours
Urine κFLC percent change from baseline (urine κFLC; Patient 9, Day 45): −30%
Urine κFLC (urine κFLC; Patient 10, Day 1): 13 mg/24 hours
Urine κFLC percent change from baseline (urine κFLC; Patient 10, Day 1): −69%
Urine κFLC (urine κFLC; Patient 10, Day 45): 40 mg/24 hours
Urine κFLC percent change from baseline (urine κFLC; Patient 10, Day 45): −5%
Urine κFLC (urine κFLC; Patient 12, Day 1): 297 mg/24 hours
Urine κFLC percent change from baseline (urine κFLC; Patient 12, Day 1): −9%
Urine κFLC (urine κFLC; Patient 12, Day 45): 363 mg/24 hours
Urine κFLC percent change from baseline (urine κFLC; Patient 12, Day 45): +11%
Urine κFLC (urine κFLC; Patient 13, Day 1): 166 mg/24 hours
Urine κFLC percent change from baseline (urine κFLC; Patient 13, Day 1): +12%
Urine κFLC (urine κFLC; Patient 13, Day 45): 29 mg/24 hours
Urine κFLC percent change from baseline (urine κFLC; Patient 13, Day 45): −80%
Dose-related trend in urinary excretion of κFLC (urine κFLC; within each dose cohort): no consistent dose-related trend
Increases in serum cytokine concentrations in response to treatment [2]: No increases
Change in serum concentration (CXCL10): dose-related decreases
Change in serum concentration (HGF): dose-related decreases
18FDG-PET metabolic response (multiple myeloma; Patient 8 (receiving lenalidomide), 3 mg/kg, 30 days after infusion versus baseline scan, 3 mg/kg): favourable and almost complete metabolic response
Symptomatic improvement (multiple myeloma; Patient 8, 3 mg/kg): diminished bone pain and normalization of kidney function
